Data taken from the supplement of paper PMC10307832.

Tests used:
Test in all cases: relative viability (nuclei count vs DMSO), 5 days (fraction); higher = more cells survive
Motesanib + Vorinostat = compound: CC1(C)CNc2cc(NC(=O)c3cccnc3NCc3ccncc3)ccc21 [Motesanib] + O=C(CCCCCCC(=O)Nc1ccccc1)NO [Vorinostat] (partner 1 µM)
Summary of the method: (§1)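 The day after seeding in 1536-well plates, lung cancer cell lines were treated by pin tool with a single drug, or with a fixed anchor-drug dose together with five library-drug doses (not always all listed) in √10 steps. After 5 days, a combined fix-and-stain solution (final 0.05% Triton X-100, 1% formaldehyde, 1 ug/ml Hoechst) was added. Nuclei counted on 4× images gave relative viability as treated counts over vehicle counts, reported as the median of duplicate plates.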

[1] = compound: C[C@@]1(C(=O)Nc2ccc(F)nc2)CCCN1c1nc(Nc2cc(C3CC3)n[nH]2)c2cccn2n1 + Cc1nc(Nc2ncc(C(=O)Nc3c(C)cccc3Cl)s2)cc(N2CCN(CCO)CC2)n1 [Dasatinib] (partner 0.075 µM)
Summary of the method: as §1

[2] = compound: C[C@@]1(C(=O)Nc2ccc(F)nc2)CCCN1c1nc(Nc2cc(C3CC3)n[nH]2)c2cccn2n1 + Nc1ncn([C@H]2C[C@H](O)[C@@H](CO)O2)c(=O)n1 [Decitabine] (partner 2 µM)
Summary of the method: as §1

[3] = compound: C[C@@]1(C(=O)Nc2ccc(F)nc2)CCCN1c1nc(Nc2cc(C3CC3)n[nH]2)c2cccn2n1 + O=C(CCCCCCC(=O)Nc1ccccc1)NO [Vorinostat] (partner 1 µM)
Summary of the method: as §1

Cell Line	relative viability (Motesanib + Vorinostat; first compound 0.01 µM)	relative viability (Motesanib + Vorinostat; first compound 0.03162 µM)	relative viability (Motesanib + Vorinostat; first compound 0.1 µM)	relative viability (Motesanib + Vorinostat; first compound 0.3162 µM)	relative viability (Motesanib + Vorinostat; first compound 1 µM)	relative viability ([1]; first compound 0.04 µM)	relative viability ([1]; first compound 0.1265 µM)	relative viability ([1]; first compound 0.4 µM)	relative viability ([1]; first compound 1.265 µM)	relative viability ([2]; first compound 0.04 µM)	relative viability ([2]; first compound 0.1265 µM)	relative viability ([2]; first compound 0.4 µM)	relative viability ([2]; first compound 1.265 µM)	relative viability ([3]; first compound 0.04 µM)	relative viability ([3]; first compound 0.1265 µM)	relative viability ([3]; first compound 0.4 µM)	relative viability ([3]; first compound 1.265 µM)
NCI-H1650	0.642	0.6	0.714	0.67	0.571	0.313	0.266	0.249	0.144	0.348	0.458	0.463	0.447	0.568	0.445	0.494	0.311
NCI-H2085	0.825	0.823	0.821	0.824	0.866	0.289	0.309	0.187	0.178	0.51	0.499	0.538	0.528	0.779	0.728	0.69	0.569
NCI-H1793	0.836	0.776	0.725	0.892	0.757	0.448	0.36		0.335	0.362	0.428	0.429	0.429	0.79	0.613	0.507	0.202
LC-2-ad	0.694	0.694	0.811	0.808	0.709	0.363	0.328	0.235	0.196	0.82	0.73	0.66	0.606	0.66	0.554	0.526	0.186
COR-L 105	0.861	0.866	0.81	1.03	0.819	0.3	0.208	0.185	0.18	0.697	0.547	0.541	0.588	0.845	0.611	0.579	0.604
NCI-H1355	0.635	0.659	0.707	0.702	0.593	0.545	0.488	0.434	0.421	0.388	0.313	0.337	0.352	0.578	0.499	0.403	0.505
H3255	0.694	0.88	0.661	0.893	0.773	0.36	0.361	0.282	0.235	0.587	0.622	0.521	0.65	0.852	0.816	0.815	0.829
NCI-H1993	0.63	0.757	0.881	0.746	0.813	0.523	0.454	0.356	0.512	0.532	0.522	0.486	0.458	0.663	0.413	0.44	0.422
NCI-H1734	0.741	0.821	0.813	0.805	0.865	0.345	0.296	0.29	0.185	0.456	0.389	0.405	0.437	0.71	0.58	0.486	0.421
